# Measurements from US6225284A, “Somatostatin peptides” (Novartis AG, priority 1995, dated 2001).
# Numbered stars: 1 amine (or outer) side, 2 acyl side, 3 side chain; on linkers, the order of the positions; unused ones are H or OH. Square brackets hold non-standard residues; d marks the D form. Side chains are listed from the residue outwards. Peptide text beside a SMILES is read from it. * marks the point of attachment. Ethylenediamine = C(CN[*:2])N[*:1]; cisHyp = O=C(O)[C@@H]1C[C@H](O)CN1; Hyp = O=C(O)[C@@H]1C[C@@H](O)CN1; NHCH2CH2NMe2 = CN(C)CCN*; CO = O=C([*:1])[*:2]; Bn = c1ccc(C*)cc1
# Experiments:
# hSST-1 = hSST-1 (Homo sapiens, UniProt P30872); experiment: competition binding assay, membranes of CHO cells expressing hSST-1, [125I-Tyr3]-octreotide; details: competition with [125I-Tyr3]-octreotide; read-out: IC50 (nM) hSSTR-1
# hSST-1, sequence (P30872 whole entry): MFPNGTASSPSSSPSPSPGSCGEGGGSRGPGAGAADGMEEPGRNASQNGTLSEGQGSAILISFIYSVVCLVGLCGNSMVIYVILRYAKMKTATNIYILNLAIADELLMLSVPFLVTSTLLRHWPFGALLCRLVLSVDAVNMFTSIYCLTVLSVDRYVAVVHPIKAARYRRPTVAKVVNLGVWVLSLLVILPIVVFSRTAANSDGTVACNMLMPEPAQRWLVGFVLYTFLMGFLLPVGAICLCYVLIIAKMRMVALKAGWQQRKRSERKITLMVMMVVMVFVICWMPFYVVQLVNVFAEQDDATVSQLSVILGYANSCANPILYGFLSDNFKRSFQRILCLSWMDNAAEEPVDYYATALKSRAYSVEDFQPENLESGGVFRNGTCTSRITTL
# Method: (§1) The binding assays may be carried out as disclosed hereunder using membranes prepared from hSST-1, hSST-2, hSST-3, hSST-4 or hSST-5 selective cell lines, e.g. CHO cells stably expressing hSST-1, hSST-2, hSST-3, hSST-4 or hSST-5.
# (§2) Brain or pituitary tissue is used in which hSST are visualized with e.g. in situ hybridization and/or receptor autoradiography. Membranes are prepared according to known methods, e.g. as disclosed by J C. Reubi et al. in J. Clin. Endocrinol. Metab. 1987, 65, 1127-1137. Membranes prepared from hSST selective cell lines, e.g. CHO cells stably expressing hSST-1 or hSST-2 or hSST-3 or hSST-4 or hSST-5 are incubated in triplicate in a total volume of 300 μl at 22° C. for 30 min with increasing concentrations of [^125 I-Tyr^3 ]-octreotide in 10 mmol/l Hepes buffer (pH 7.6) containing 0.5% BSA. The incubation is terminated by rapid filtration through Whatman GF/B glass fiber filters, which are then washed four times each with 5 ml ice cold 10 mmol/l Tris/150 mmol/l NaCl. The filters are counted in a LKB counter at 78% counting efficiency. Specific binding is total binding minus non-specific binding in the presence of 1 μmol/l somatostatin-14. The experiments are carried out in triplicate. The affinity constant (KD) and number of binding sites are calculated from Scatchard plots of the data.
# (§3) The COMPOUNDS OF THE INVENTION, e.g. as indicated above, respectively, have in the above binding assays towards hsST-1, hSST-2, hSST-3, hSST-4 and/or hSST-5 an IC50 in the nMolar range, preferably an IC50 of from 0.1 to 10 nM (IC50 =concentration for half-maximal inhibition in a competition binding assay using [^125 I-Tyr^3 ]-octreotide the same radioligand as indicated above).
# hSST-2 = hSST-2 (Homo sapiens, UniProt P30874); experiment: competition binding assay, membranes of CHO cells expressing hSST-2, [125I-Tyr3]-octreotide; details: competition with [125I-Tyr3]-octreotide; read-out: IC50 (nM) hSSTR-2
# hSST-2, sequence (P30874 whole entry): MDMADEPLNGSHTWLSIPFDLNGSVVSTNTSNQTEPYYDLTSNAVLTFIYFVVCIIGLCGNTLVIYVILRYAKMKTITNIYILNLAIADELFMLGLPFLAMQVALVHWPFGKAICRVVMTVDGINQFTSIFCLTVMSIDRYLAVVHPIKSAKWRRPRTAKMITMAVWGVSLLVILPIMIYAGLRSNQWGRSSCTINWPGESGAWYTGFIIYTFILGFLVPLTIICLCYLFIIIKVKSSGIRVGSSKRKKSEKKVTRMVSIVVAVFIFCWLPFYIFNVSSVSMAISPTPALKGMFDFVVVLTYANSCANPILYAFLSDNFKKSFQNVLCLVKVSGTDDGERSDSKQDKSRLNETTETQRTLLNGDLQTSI
# Method: as §1, §2, §3
# hSST-3 = hSST-3 (Homo sapiens, UniProt P32745); experiment: competition binding assay, membranes of CHO cells expressing hSST-3, [125I-Tyr3]-octreotide; details: competition with [125I-Tyr3]-octreotide; read-out: IC50 (nM) hSSTR-3
# hSST-3, sequence (P32745 whole entry): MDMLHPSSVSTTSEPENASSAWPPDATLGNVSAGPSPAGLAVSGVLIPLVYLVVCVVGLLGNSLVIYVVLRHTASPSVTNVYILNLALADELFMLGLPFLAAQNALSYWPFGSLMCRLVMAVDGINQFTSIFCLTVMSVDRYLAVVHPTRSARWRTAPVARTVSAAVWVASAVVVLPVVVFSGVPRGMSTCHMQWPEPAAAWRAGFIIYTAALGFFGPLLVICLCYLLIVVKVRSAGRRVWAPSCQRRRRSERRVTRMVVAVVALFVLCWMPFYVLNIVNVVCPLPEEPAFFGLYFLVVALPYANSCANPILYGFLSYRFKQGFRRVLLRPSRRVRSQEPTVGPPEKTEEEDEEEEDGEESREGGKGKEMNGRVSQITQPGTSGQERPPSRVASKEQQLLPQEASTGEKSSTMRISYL
# Method: as §1, §2, §3
# hSST-4 = hSST-4 (Homo sapiens, UniProt P31391); experiment: competition binding assay, membranes of CHO cells expressing hSST-4, [125I-Tyr3]-octreotide; details: competition with [125I-Tyr3]-octreotide; read-out: IC50 (nM) hSSTR-4
# hSST-4, sequence (P31391 whole entry): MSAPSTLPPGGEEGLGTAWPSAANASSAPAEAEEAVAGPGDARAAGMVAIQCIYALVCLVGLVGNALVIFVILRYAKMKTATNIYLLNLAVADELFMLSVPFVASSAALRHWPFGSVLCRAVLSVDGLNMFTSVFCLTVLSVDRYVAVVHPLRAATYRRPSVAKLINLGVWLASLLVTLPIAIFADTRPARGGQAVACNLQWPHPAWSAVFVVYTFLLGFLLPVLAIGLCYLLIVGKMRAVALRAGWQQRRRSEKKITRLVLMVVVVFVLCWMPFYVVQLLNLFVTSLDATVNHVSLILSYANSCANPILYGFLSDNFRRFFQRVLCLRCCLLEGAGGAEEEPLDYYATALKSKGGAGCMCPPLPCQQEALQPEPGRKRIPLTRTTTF
# hSST-5 = hSST-5 (Homo sapiens, UniProt P35346); experiment: competition binding assay, membranes of CHO cells expressing hSST-5, [125I-Tyr3]-octreotide; details: competition with [125I-Tyr3]-octreotide; read-out: IC50 (nM) hSSTR-5
# hSST-5, sequence (P35346 whole entry): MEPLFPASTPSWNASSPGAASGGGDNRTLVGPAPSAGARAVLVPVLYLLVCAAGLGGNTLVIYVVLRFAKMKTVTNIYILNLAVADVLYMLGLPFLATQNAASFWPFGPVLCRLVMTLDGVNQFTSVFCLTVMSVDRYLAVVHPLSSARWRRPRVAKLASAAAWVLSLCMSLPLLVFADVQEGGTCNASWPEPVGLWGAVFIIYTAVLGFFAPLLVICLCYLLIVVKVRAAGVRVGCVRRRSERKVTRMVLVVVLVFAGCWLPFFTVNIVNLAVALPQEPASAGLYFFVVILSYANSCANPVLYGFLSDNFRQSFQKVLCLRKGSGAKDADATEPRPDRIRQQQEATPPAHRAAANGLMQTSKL
# Method: as §1, §2, §3
# [1] = test system: GH release from cultured pituitary cells; experiment: inhibition of GH release in vitro from cultured pituitary cells; format: cell-based; details: rat pituitary cells, 3×10^-10 M growth hormone releasing factor, two to four hours
# Method: Furthermore, the COMPOUNDS OF THE INVENTION show GH-release inhibiting activity as indicated by the inhibition of GH release in vitro from cultured pituitary cells. Anterior pituitary glands from adult male rats are cut into small pieces and dispersed using 0.1% trypsin in 20 mM HEPES buffer. The dispersed cells are cultured for four days in MEM (Gibco) supplemented with 5% fetal calf serum, 5% horse serum, 1 mM NaHCO3, 2.5 nM dexamethasone, 2.5 mg/ml insulin and 20 U/ml Pen/Strep. On the day of the experiment the attached cells are washed two times with Krebs-Ringer medium buffered with 20 mM HEPES and supplemented with 5 mM glucose and 0.2% BSA. Subsequently the cells are incubated for two to four hours with the test compound in the presence of 3×10^-10 M growth hormone releasing factor. The amount of growth hormone released into the medium is measured by RIA.
# [2] = test system: AR42J rat pancreatic tumor cell line; experiment: AR42J proliferation test; format: cell-based; details: exposure 2 to 5 days; ± SE; read-out: IC50, inhibition of proliferation of AR42J tumor cells
# Method: The AR42J rat pancreatic tumor cell line is derived from an azaserine-induced exocrine pancreatic tumor (Jessop and Hay, 1980). The absence of mycoplasma is regularly checked using bisbenzimide staining and the GenProbe hybridization assay (San Diego, Calif.). Cultures are propagated in DMEM supplemented with 10% fetal calf serum (FCS) at 5% CO2. Cells are grown in the absence of antibiotics or antifungal agents. Subconfluent AR42J cells are trypsinized, diluted in DMEM +2.5% FCS and seeded in uncoated 96-well plates. After a 48-hr incubation period (Day 0), the number of cells in a separate control plate is determined both by counting cells in a Coulter counter and by the SRB calorimetric assay. The cells are then exposed to the compound to be tested for 2 to 5 days at various concentrations and then counted.
SMILES,IC50 (hSST-1),IC50 (hSST-2),IC50 (hSST-3),IC50 (hSST-5),IC50 (hSST-4),IC50 [1],IC50 [2]
"NCCCC[C@@H]1NC(=O)[C@@H](Cc2c[nH]c3ccccc23)NC(=O)[C@H](Cc2ccccc2)NC(=O)[C@@H]2C[C@@H](O)CN2C(=O)[C@H](Cc2ccccc2)NC(=O)[C@H](Cc2ccc(OCc3ccccc3)cc2)NC1=O [Example 1, Cyclo [HyPro-Phe-DTrp-Lys-Tyr(Bzl)-Phe]] (cyclo(F[Hyp]F[dW]KY(Bn)))",63 nM,0.94 nM,1.9 nM,0.35 nM,320 nM,–,–
"NCCCC[C@@H]1NC(=O)[C@@H](Cc2c[nH]c3ccccc23)NC(=O)[C@H](Cc2ccccc2)NC(=O)[C@@H]2C[C@@H](OC(=O)NCCN)CN2C(=O)[C@H](Cc2ccccc2)NC(=O)[C@H](Cc2ccc(OCc3ccccc3)cc2)NC1=O [Example 2, Cyclo[{4-(NH2 --C2 H4 --NH--CO--O--)Pro}-Phe-DTrp-Lys-Tyr(Bzl)-Phe]] (cyclo(F[Hyp]([CO-Ethylenediamine])F[dW]KY(Bn)))",4.6 nM,2.3 nM,0.93 nM,0.46 nM,490 nM,0.4 nM,0.7 ± 0.3 nM

# Now from value to molecule, other results behind:
IC50 (hSST-1),IC50 (hSST-2),IC50 (hSST-3),IC50 (hSST-5),SMILES,IC50 (hSST-4),IC50 [1],IC50 [2]
0.5 nM,0.8 nM,3.9 nM,2.9 nM,NCCCC[C@@H]1NC(=O)[C@@H](Cc2c[nH]c3ccccc23)NC(=O)[C@H](Cc2ccccc2)NC(=O)[C@@H]2C[C@@H](OC(=O)NCCN)CN2C(=O)[C@H](Cc2ccccc2)NC(=O)[C@H](COCc2ccccc2)NC1=O [Example 31] (cyclo(F[Hyp]([CO-Ethylenediamine])F[dW]KS(Bn))),–,–,–
3.8 nM,0.13 nM,57 nM,2 nM,NCCCC[C@@H]1NC(=O)[C@@H](Cc2c[nH]c3ccccc23)NC(=O)[C@H](Cc2ccccc2)NC(=O)[C@@H]2C[C@H](OC(=O)NCCN)CN2C(=O)[C@H](Cc2ccccc2)NC(=O)[C@H](COCc2ccccc2)NC1=O [Example 32] (cyclo(F[cisHyp]([CO-Ethylenediamine])F[dW]KS(Bn))),–,–,–
0.6 nM,1.3 nM,2.4 nM,4.5 nM,CN(C)CCNC(=O)O[C@@H]1C[C@H]2C(=O)N[C@@H](Cc3ccccc3)C(=O)N[C@H](Cc3c[nH]c4ccccc34)C(=O)N[C@@H](CCCCN)C(=O)N[C@@H](COCc3ccccc3)C(=O)N[C@@H](Cc3ccccc3)C(=O)N2C1 [Example 36] (cyclo(F[Hyp]([CO-NHCH2CH2NMe2])F[dW]KS(Bn))),–,–,–
